Data as given in patent US9067884B2, “Pyrrole compounds that modulate HSP90 activity” (Synta Pharmaceuticals Corp., priority 2008, dated 2015).

Legend:
[1] = tested on: Hsp90; test: IC50 range of compounds of the invention for  inhibition of Hsp90 (Method 2: MV-4-11 cells, Cell Counting Kit-8); assay type: cell-based, human; settings: text: IC50 range for Her2 degradation, 72 hours, cell survival by Cell Counting Kit-8
Protocol: MV-4-11 cells (20,000 cells/well) were cultured in 96-well plates and maintained at 37° C. for several hours. The cells were treated with a compound of the invention or 17AAG (a positive control) at various concentrations and incubated at 37° C. for 72 hours. Cell survival was measured with Cell Counting Kit-8 (Dojindo Laboratories, Cat. # CK04).

[2] = tested on: Her2; test: Degradation of Her2 in BT-474 cells (Method 1, Western blot); assay type: cell-based, Human; settings: 0.5 μM, overnight
Protocol: Human high-Her2 breast carcinoma BT474 (HTB-20), SK-BR-3 (HTB-30) and MCF-7 breast carcinoma (HTB-22) from American Type Culture Collection, VA, USA were grown in Dulbecco's modified Eagle's medium with 4 mM L-glutamine and antibiotics (100 IU/ml penicillin and 100 μg/ml streptomycine; GibcoBRL). To obtain exponential cell growth, cells were trypsinized, counted and seeded at a cell density of 0.5×10^6 cells/ml regularly, every 3 days. All experiments were performed on day 1 after cell passage.
BT-474 cells are treated with 0.5 μM, 2 μM, or 5 μM of 17AAG (a positive control) or 0.5 μM, 2 μM, or 5 μM of a compound of the invention overnight in DMEM medium. After treatment, each cytoplasmic sample, is prepared from 1×10^6 cells by incubation of cell lysis buffer (#9803, Cell Signaling Technology) on ice for 10 minutes. The resulting supernatant used as the cytosol fractions is dissolved with sample buffer for SDS-PAGE and run on a SDS-PAGE gel, blotted onto a nitrocellulose membrane by using semi-dry transfer. Non-specific binding to nitrocellulose is blocked with 5% skim milk in TBS with 0.5% Tween at room temperature for 1 hour, then probed with anti-Her2/ErB2 mAb (rabbit IgG, #2242, Cell Signaling) and anti-Tubulin (T9026, Sigma) as housekeeping control protein. […]

| SMILES | IC50 [1] [nM] | degradation of Her2 [2] |
| --- | --- | --- |
| CCNC(=O)c1ccc(-c2cc(C(C)C)c(O)cc2O)n1-c1ccc(N(C)C)cc1 [Compound 3, 5-(2,4-dihydroxy-5-isopropylphenyl)-1-(4-(dimethylamino)phenyl)-N-ethyl-1H-pyrrole-2-carboxamide] | > 1000 | – |
| C=CCNC1=C2C[C@@H](C)C[C@H](OC)[C@H](O)[C@@H](C)/C=C(\C)[C@H](OC(N)=O)[C@@H](OC)/C=C\C=C(/C)C(=O)NC(=CC1=O)C2=O [Compound 17AAG, 17-allylamino-17-demethoxygeldanamycin] | – | partial degradation of Her2 |
